Legend:
Rattus norvegicus [1] = experiment: Dose normalized Cmax in rat at 10 mg/kg, po; format: ADME, organism-based; design: dose 10 mg/kg, route oral; settings: in vivo
[2] = Bioavailability in rat at 10 mg/kg, po; format: ADME, organism-based; settings: in vivo
[3] = Half life in rat at 3 mg/kg, iv; format: ADME, organism-based; design: dose 3 mg/kg, route intravenous; settings: in vivo
[4] = Clearance in rat at 3 mg/kg, iv; format: ADME, organism-based; design: dose 3 mg/kg, route intravenous; settings: in vivo
[5] = AUC in rat at 3 mg/kg, iv; format: ADME, organism-based; design: dose 3 mg/kg, route intravenous; settings: plasma
[6] = Half life in rat at 10 mg/kg, po; format: ADME, organism-based; design: dose 10 mg/kg, route oral; settings: in vivo
Rattus norvegicus [7] = experiment: Dose normalized AUC in rat at 10 mg/kg, po; format: ADME, organism-based; design: dose 10 mg/kg, route oral; settings: in vivo
[8] = target: C-C chemokine receptor type 5 (Homo sapiens, UniProt P51681); experiment: Antagonist activity at human CCR5 expressed in CHO cells assessed as inhibition of MIP-1alpha-induced calcium mobilization; format: functional, cell-based
C-C chemokine receptor type 5, sequence (P51681 whole entry): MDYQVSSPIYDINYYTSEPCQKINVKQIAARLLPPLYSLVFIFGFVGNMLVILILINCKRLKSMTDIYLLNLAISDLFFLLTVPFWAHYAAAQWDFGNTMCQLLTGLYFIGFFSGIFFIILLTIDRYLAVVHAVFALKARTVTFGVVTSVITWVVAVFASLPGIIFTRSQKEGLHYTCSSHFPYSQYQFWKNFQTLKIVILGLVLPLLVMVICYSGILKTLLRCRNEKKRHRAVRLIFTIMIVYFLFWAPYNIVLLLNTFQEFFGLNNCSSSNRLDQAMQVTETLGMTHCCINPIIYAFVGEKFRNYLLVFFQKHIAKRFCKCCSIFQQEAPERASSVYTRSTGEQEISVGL

Liver microsomes [9] = experiment: Metabolic stability in rat liver microsomes assessed as compound remaining after 15 mins; format: ADME, Microsome; settings: 0.25 h
Liver microsomes [10] = experiment: Metabolic stability in human liver microsomes assessed as compound remaining after 15 mins; format: ADME, Microsome; settings: 0.25 h
[11] = test system: Human immunodeficiency virus 1; experiment: microbe, parasite or virus in culture; settings: Human immunodeficiency virus 1, Ba-L
Description: Antiviral activity against R5 tropic HIV1 Ba-L infected PBMC assessed as inhibition of viral p24 antigen expression

[12] = Aqueous solubility of the compound at pH 6.8; format: physicochemical; settings: buffer

CCCCN1C(=O)C(CC2CCCCC2)NC(=O)C12CCN(Cc1ccc(Oc3ccc(C(=O)NC)cc3)cc1)CC2.Cl (stereo not given)
Cmax/dose (Rattus norvegicus [1]): 5.6 ng/mL
bioavailability [2]: 1.9%
half-life [3]: 19.9 min
clearance [4]: 113 mL/min/kg
AUC [5]: 400 ng·h/mL
half-life [6]: 103 min
AUC/dose (Rattus norvegicus [7]): 24.8 ng·h/mL

CCCCN1C(=O)[C@@H]([C@H](O)C2CCC2)NC(=O)C12CCN(Cc1ccc(Oc3ccc(C(=O)O)cc3)cc1)CC2.Cl
IC50 [8]: 25 nM
Stability (Liver microsomes [9]): 100%
Stability (Liver microsomes [10]): 95%

CCCCN1C(=O)[C@@H]([C@H](O)C2CCCCC2)NC(=O)C12CCN(Cc1ccc(Oc3ccc(S(C)(=O)=O)cc3)cc1)CC2
IC50 [8]: 34 nM

CCCCN1C(=O)[C@@H]([C@H](O)C2CCCCC2)NC(=O)C12CCN(Cc1ccc(Oc3ccc(NS(C)(=O)=O)cc3)cc1)CC2.Cl
Cmax/dose (Rattus norvegicus [1]): 50 ng/mL
Stability (Liver microsomes [9]): 91%
bioavailability [2]: 5%
half-life [3]: 137 min
clearance [4]: 25 mL/min/kg
AUC [5]: 1540 ng·h/mL
half-life [6]: 205 min
Stability (Liver microsomes [10]): 1.8%
AUC/dose (Rattus norvegicus [7]): 242 ng·h/mL

CCCCN1C(=O)[C@@H]([C@H](O)C2CCOCC2)NC(=O)C12CCN(Cc1ccc(Oc3ccc(C(=O)O)cc3)cc1)CC2
IC50 [8]: 120 nM

CNC(=O)c1ccc(Oc2ccc(CN3CCC4(CC3)C(=O)N[C@H]([C@H](O)C3CCCCC3)C(=O)N4CC(F)(F)C(F)(F)F)cc2)cc1
IC50 [8]: 270 nM

CCN1C(=O)[C@@H]([C@H](O)C2CCCCC2)NC(=O)C12CCN(Cc1ccc(Oc3ccc(C(=O)O)cc3)cc1)CC2
IC50 [8]: 23 nM

Cc1cn([C@H]2C[C@H](N=[N+]=[N-])[C@@H](CO)O2)c(=O)[nH]c1=O [ZIDOVUDINE]
IC90 [11]: 48 nM

CCCCN1C(=O)[C@@H]([C@H](O)C2CCCCC2)NC(=O)C12CCN(Cc1ccc(Oc3ccc(OC)cc3)cc1)CC2
IC50 [8]: 91 nM

CCCCCCCN1C(=O)[C@@H]([C@H](O)C2CCCCC2)NC(=O)C12CCN(Cc1ccc(Oc3ccc(C(=O)NC)cc3)cc1)CC2
IC50 [8]: 190 nM

CNC(=O)c1ccc(Oc2ccc(CN3CCC4(CC3)C(=O)N[C@H]([C@H](O)C3CCCCC3)C(=O)N4CC(F)(F)F)cc2)cc1
IC50 [8]: 46 nM

CCCCN1C(=O)[C@H](CC2CCCCC2)NC(=O)C12CCN(Cc1ccc(Oc3ccc(C(=O)O)cc3)cc1)CC2
IC90 [11]: 171 nM

Cc1ccc(-c2ccc3c(c2)C=C(C(=O)Nc2ccc(C[N+](C)(C)C4CCOCC4)cc2)CCC3)cc1
IC90 [11]: 256 nM

CNC(=O)c1ccc(Oc2ccc(CN3CCC4(CC3)C(=O)N[C@H]([C@H](O)C3CCCCC3)C(=O)N4CCN(C)C)cc2)cc1
IC50 [8]: 640 nM

CCCCCCN1C(=O)[C@@H]([C@H](O)C2CCCCC2)NC(=O)C12CCN(Cc1ccc(Oc3ccc(C(=O)NC)cc3)cc1)CC2
IC50 [8]: 110 nM

CN1C(=O)[C@@H]([C@H](O)C2CCCCC2)NC(=O)C12CCN(Cc1ccc(Oc3ccc(C(=O)O)cc3)cc1)CC2
IC50 [8]: 50 nM

CCCCN1C(=O)[C@@H]([C@H](O)C2CCC(O)CC2)NC(=O)C12CCN(Cc1ccc(Oc3ccc(C(=O)O)cc3)cc1)CC2.Cl (stereo not given in full)
IC50 [8]: 140 nM
Stability (Liver microsomes [9]): 100%
Stability (Liver microsomes [10]): 100%

CCCCN1C(=O)[C@@H]([C@H](O)C2CCCC2)NC(=O)C12CCN(Cc1ccc(Oc3ccc(C(=O)O)cc3)cc1)CC2.Cl
IC50 [8]: 33 nM
Stability (Liver microsomes [9]): 100%
Stability (Liver microsomes [10]): 93%

CCCCN1C(=O)C(C(C)C)NC(=O)C12CCN(Cc1ccc(Oc3ccccc3)cc1)CC2.Cl (stereo not given)
Cmax/dose (Rattus norvegicus [1]): 33.3 ng/mL
solubility [12]: 0.2 µg/mL
bioavailability [2]: 1.3%
half-life [3]: 13 min
AUC [5]: 372 ng·h/mL
half-life [6]: 75.7 min
AUC/dose (Rattus norvegicus [7]): 96.7 ng·h/mL

Reference: ChEMBL document CHEMBL1811891 (Bioorg Med Chem, 2011)
